Literature values, collected in patent US20240415113A1, “COMPOSITION AND METHOD FOR ATTRACTING VESPID WASPS” (BanfieldBio Inc., priority 2023, published 2024).

What was measured:
western yellowjackets = details: Oregon peach orchard, 10 days in 1969
vespid wasps = details: 50 μL heptyl butyrate and 1 g chicken meat extract, separately or together in the receiving chamber

CCCCCCCOC(=O)CCC [Heptyl butyrate]
western yellowjackets captured per trap (western yellowjackets): over 800 western yellowjackets per trap | trap catch comparison in words (vespid wasps): impeded entry into traps baited with the chicken extract
